# Experiment: Surface resistance measurement with high resistance meter
# Assay type: physicochemical
# Conditions: 0.7 g (in terms of anhydride) applied
# Experimental: Surface resistance measurements were performed on compound 1 that had not undergone emulsification adjustment and on glycerin and the emulsification composition that had already undergone emulsification adjustment. In the comparison of compound 1 that had not undergone emulsification adjustment and glycerin, 0.7 g (content in terms of anhydride) of each of the compound 1 and glycerin was applied to an artificial leather made of polyurethane, followed by using a high resistance meter (Stack TR-2 by Tokyo Electronics Co., Ltd.) to measure a surface resistance value. Further, in the comparison by the emulsified composition, 0.05 g of the emulsification compositions shown in Table 11 were each applied to an artificial leather made of polyurethane to measure a surface resistance value using a high resistance meter.
# Further, 0.7 g (content in terms of anhydride) of sodium lactate was applied to an artificial leather made of polyurethane before drying the same to volatilize water. As the result, the coating surface was turned into a solid state whose surface resistance value, measured in a similar manner as above, turned out to be 2×10^8Ω; confirmed were a non-volatility of the compound 1 (lower than 1×10^8Ω) and an effect of liquidity at 25° C. (capability of evenly coating a coating object).
"surface resistance value (not emulsified, liquid state at measurement)",SMILES,"surface resistance value (dried to volatilize water, solid state)"
5×10^8 Ω,OCC(O)CO [glycerin],
,CC(O)C(=O)[O-].[Na+] (centres unmarked) [sodium lactate],2×10^8 Ω

# Source: patent US12441959B2, “Composition containing organic ammonium salt” (MIYOSHI OIL & FAT CO., LTD., priority 2019, dated 2025)
